Data as given in BindingDB's records for doi:10.1021/jm040190e (National Institute On Drug Abuse-Intramural Research Program, 2005).
pIC50: −log10 of the molar value.

Experiment: Mitogenic stimulation or antagonism of 30 nM quinpirole-stimulated mitogenesis in CHO cells expressing human dopamine D3 receptor

Row | SMILES | pIC50
1 | O=C(NC/C=C/CN1CCN(c2cccc(Cl)c2Cl)CC1)c1ccc2c(c1)Cc1ccccc1-2 [N-(4-(4-(2,3-dichlorophenyl)piperazin-1-yl)but-2-enyl)-9H-fluorene-2-carboxamide] | 6.76
2 | O=C(NC/C=C/CN1CCN(c2cccc(Cl)c2Cl)CC1)c1ccc(O)cc1 [N-{4-[4-(2,3-Dichloro-phenyl)-piperazin-1-yl]-but-2-enyl}-4-hydroxy-benzamide] | 9.00
3 | O=C(NC/C=C/CN1CCN(c2cccc(Cl)c2Cl)CC1)c1ccc(I)cc1 [N-{4-[4-(2,3-Dichloro-phenyl)-piperazin-1-yl]-but-2-enyl}-4-iodo-benzamide] | 7.62
4 | COc1ccc(C(=O)NC/C=C/CN2CCN(c3cccc(Cl)c3Cl)CC2)cc1 [N-{4-[4-(2,3-Dichloro-phenyl)-piperazin-1-yl]-but-2-enyl}-4-methoxy-benzamide] | 8.32
5 | O=C(NCCCCN1CCN(c2cccc(Cl)c2Cl)CC1)c1ccc(-c2ccccn2)cc1 [N-{4-[4-(2,3-Dichloro-phenyl)-piperazin-1-yl]-butyl}-4-pyridin-2-yl-benzamide] | 8.20
6 | O=C(NC/C=C/CN1CCN(c2cccc(Cl)c2Cl)CC1)c1ccc([N+](=O)[O-])cc1 [N-{(E)-4-[4-(2,3-Dichloro-phenyl)-piperazin-1-yl]-but-2-enyl}-4-nitro-benzamide] | 8.66
